Laboratory results reported in patent publication US6761895B2, “Drug delivery system for averting pharmacokinetic drug interaction and method thereof” (priority 2000, dated 2004).

Columns and labels:
[1] = system: carriers on the epithelial cells of the small intestines; settings: cefadroxil concomitantly administered with cefalexine; cited from earlier work
CYP3A4 [2] = test: Test Example 3: midazolam plasma AUC in dogs, alone or with concomitant diltiazem; settings: male, beagle, dog, po, 4 mg/dog
Procedure: The aqueous solution for oral administration containing midazolam was orally administered (4 mg/dog) using a catheter for oral administration to a male beagle dogs (n=3) that had been fasted for approximately 20 hours.

CYP3A4 [3] = test: Test Example 2: midazolam plasma AUC in dogs, alone or with concomitant conivaptan; settings: male, beagle, dog, po, 4 mg/dog
Procedure: The following experiments were conducted using midazolam, which is metabolized CYP3A4, as a concomitant drug of conivaptan hydrochloride.
(§1) (1) Aqueous solution for oral administration containing midazolam: After preparing commercial midazolam injectable liquid (brand name: Dormicum® injection) to a concentration of 0.2 mg/ml with aqueous hydrochloric acid solution (pH of 3), HPMC2910 was added at 3-times the amount of midazolam to obtain a liquid for oral administration.
After administration, blood was collected from the veins of the front legs and the plasma concentration of midazolam was determined by the HPLC/UV method over time.
Thirty minutes after administration the aqueous solution for oral administration containing midazolam was orally administered using a catheter for oral administration (4 mg/dog). After midazolam administration, blood was collected from the veins of the front legs and the plasma concentration of midazolam was determined by the HPLC/UV method over time.
Thirty minutes after administration an aqueous solution for oral administration containing midazolam (4 mg/dog) was orally administered using a catheter for oral administration. After midazolam administration, blood was collected from the veins of the front legs and the plasma concentration of midazolam was determined by the HPLC/UV method over time.

CYP3A4 [4] = test: Test Example 4: midazolam plasma AUC in dogs, alone or with concomitant ketoconazole; settings: male, beagle, dog, po, 4 mg/dog
Procedure: as §1
The aqueous solution for oral administration containing midazolam was orally administered(4 mg/dog) using a catheter for oral administration to male beagle dogs (n=2) that had been fasted for approximately 20 hours.

[5] = with administration of cimetidine, concomitant use with ketoconazole; cited from earlier work

CC1=C(C(=O)O)N2C(=O)[C@@H](NC(=O)[C@H](N)c3ccc(O)cc3)[C@H]2SC1 [cefadroxil]
change in cefadroxil plasma concentration [1]: reduction by approximately half

Cc1ncc2n1-c1ccc(Cl)cc1C(c1ccccc1F)=NC2 [midazolam]
AUC (CYP3A4 [2]): 55 ng·h/mL | AUC (CYP3A4 [3]): 9 ± 6 ng·h/mL | AUC (CYP3A4 [4]): 68.7 ng·h/mL

CN/C(=N/CCSCc1nc[nH]c1C)NC#N [cimetidine]
gastric pH [5]: 3 to 5
